Test results from patent US6855669B2, “Use of α,β unsaturated aliphatic aldehydes and ketones to inhibit potato tuber sprouting” (Washington State University Research Foundation, priority 2000, dated 2005).

Experiments:
Assay type in all cases: in vivo, Solanum tuberosum
[1] = system: Russet Burbank seed tubers; assay: Example 4: sprout inhibition by aldehyde vapors, 26 days of sprouting; settings: 12 hours vapor, 26 days at 18° C.
Experimental: Methods: Eleven-month-old Russet Burbank seed tubers were taken from a 4° C. storage area and exposed to trans-2-hexenal (0.6-4.3 mmol/kg), trans-2-heptenal (0.6-3.8 mmol/kg) and trans-2-octenal (0.5-2.5 mmol/kg) vapors separately in 3.9 L glass containers for 12 hours at 23° C. The aldehydes were applied to filter paper inside petri dishes within each jar. Control tubers were enclosed in a glass container without any aldehyde. Sprouts were ‘peeping’ (approximately 3 mm in length) at the time of treatment. Following treatment, tubers were placed at 18° C. (95% relative humidity) in the dark to sprout for 26 days. The experiment was set up in a randomized complete block design (5 replicates) with chemicals and concentrations arranged factorially. Effects of the aliphatic aldehydes on the development of etiolated sprouts were documented at 20 days (photographically) and 26 days of sprouting.

[2] = system: Russet Burbank and Ranger Russet seed-tubers; assay: Example 5: sprout inhibition by C5 to C9 trans-2 aldehydes over prolonged storage (17 weeks); settings: 0.5, 0.75 and 1.0 mmol/kg tuber, 24 hours, 17 weeks at 8° C.; for inhibition of sprout development (in words): 95% RH
Experimental: (46° F.), 95% relative humidity (RH), for 17 weeks. As described more fully in Example 5, four-month-old tubers (previously stored at 4° C.) were treated (for 24 h) with different concentrations of the aldehydes in mid January. The treated tubers were then stored in the dark for 120 days (17 weeks).
Methods: Four-month-old Russet Burbank and Ranger Russet seed-tubers were taken from a 4° C. storage area and treated (Jan. 10, 2001) separately with 0, 0.5, 0.75 and 1.0 mmol/kg tuber of trans-2-pentenal, trans-2-hexenal, trans-2-heptenal, trans-2-octenal, and trans-2-nonenal in 3.9 L glass jars. The volume of inhibitor required to achieve the above rates was pipetted onto filter paper discs inside the lids of each jar. The concentration of inhibitors in the headspace of the jars was equal at 0.16 mmol/L. The tubers were enclosed in the jars and thus exposed to inhibitor vapor for 24 hours at 23° C. Control tubers were enclosed in a glass jar without any aldehyde. Following treatment, tubers were removed from the jars and placed at 8° C. (46° F.) (95% relative humidity) in the dark to sprout for 120 days (17 weeks). The experiment was set up in a randomized complete block design (5 replicates) with chemicals and concentrations arranged factorially. Effects of the aliphatic aldehydes on the development of etiolated sprouts were documented photographically and quantitatively (sprout number and fresh weight) after 120 days of storage.

Russet Burbank tubers = assay: Example 6: reconditioning, sprout fresh weight and fry color; settings: 0.45 mmol/kg
Experimental: Seven-month-old tubers from 4° C. (40° F.) storage were treated with 0.45 mmol/kg trans-2-nonenal for 17 hours at 23° C. The tubers were then placed at 14° C. (57° F.) to recondition. French fries were processed from the tubers through four weeks of reconditioning. Fry color (lightness or darkness) was quantified with a photovolt reflectance meter. High photovolt values indicate light-colored fries (high processing quality). Low photovolt values indicate low-quality, dark-colored fries.
Methods: Russet Burbank tubers were stored at 7° C. (44° F.) from harvest Oct. 29, 2000 to Jan. 26, 2001. The tubers were transferred to 4° C. (40° F.) on Jan. 26, 2001, until treatment on Apr. 2, 2001. Tubers were treated with 0.45 mmol/kg trans-2-nonenal in 9.2 L glass desiccators for 17 hours at 23° C. Following treatment, the tubers were placed at 14° C. (57° F.) to recondition for 0, 1, 2, 3 and 4 weeks. […] Fry darkness of the apical and basal ends of the fries was quantified with a photovolt reflectance meter within three minutes of frying. A high reflectance reading (photovolt unit) indicates light fry color due to a relatively low sugar level and thus a high-quality processed product. Conversely, a low reflectance reading indicates dark fry color due to high sugar content, resulting in low processing quality. […] Sprout fresh weight and fry color were recorded.

**Q.** Which results are given for `CCCC/C=C/C=O` [trans-2-heptenal]?
**A.** Average Sprout Length ([1]; 0.56 mmol/kg): 0.2 cm/tuber; Sprout Fresh Weight ([1]; 0.56 mmol/kg): 0.01 g/tuber; Average Sprout Length ([1]; 1.11 mmol/kg): 0 cm/tuber; Sprout Fresh Weight ([1]; 1.11 mmol/kg): 0 g/tuber; Average Sprout Length ([1]; 1.69 mmol/kg): 0 cm/tuber; Sprout Fresh Weight ([1]; 1.69 mmol/kg): 0 g/tuber; Average Sprout Length ([1]; 2.16 mmol/kg): 0 cm/tuber; Sprout Fresh Weight ([1]; 2.16 mmol/kg): 0 g/tuber; Average Sprout Length ([1]; 3.85 mmol/kg): 0 cm/tuber; Sprout Fresh Weight ([1]; 3.85 mmol/kg): 0 g/tuber; inhibition of sprout development (in words) [2]: inhibited sprouting in a concentration-dependent manner

**Q.** What does the source list for `CCCCCC/C=C/C=O` [trans-2-nonenal]?
**A.** external pitting damage to the periderm (in words) [2]: did not induce external pitting damage; inhibition of sprout development (in words) [2]: totally inhibited sprout development; sprouts produced (fresh weight) (Russet Burbank tubers; 17 hours at 23° C., four weeks of reconditioning at 57° F.): 13.5 g fresh weight/12 tubers; processing quality (fry color, photovolt reflectance) (in words) (Russet Burbank tubers; from 2 to 4 weeks of reconditioning at 57° F.): continued to increase

**Q.** How did the “Average Sprout Length” value ([1]; 0.50 mmol/kg) turn out when `CCCCC/C=C/C=O` [trans-2-octenal] was run?
**A.** 0 cm/tuber

**Q.** And the “Sprout Fresh Weight” value ([1]; 0.50 mmol/kg)?
**A.** 0 g/tuber

**Q.** And the “Average Sprout Length” value ([1]; 0.97 mmol/kg)?
**A.** 0 cm/tuber

**Q.** And the “Sprout Fresh Weight” value ([1]; 0.97 mmol/kg)?
**A.** 0 g/tuber

**Q.** What about the “Average Sprout Length” value ([1]; 1.44 mmol/kg) of the same compound?
**A.** 0 cm/tuber

**Q.** What about the “Sprout Fresh Weight” value ([1]; 1.44 mmol/kg) of the same compound?
**A.** 0 g/tuber

**Q.** And the “Average Sprout Length” value ([1]; 1.93 mmol/kg)?
**A.** 0.2 cm/tuber

**Q.** What about the “Sprout Fresh Weight” value ([1]; 1.93 mmol/kg) of the same compound?
**A.** 0.10 g/tuber

**Q.** And the “Average Sprout Length” value ([1]; 2.48 mmol/kg)?
**A.** 0.2 cm/tuber

**Q.** What about the “Sprout Fresh Weight” value ([1]; 2.48 mmol/kg) of the same compound?
**A.** 0.13 g/tuber

**Q.** And the “external pitting damage to the periderm (in words)” value [2]?
**A.** did not induce external pitting damage

**Q.** And the “inhibition of sprout development (in words)” value [2]?
**A.** totally inhibited sprout development

**Q.** Which “inhibition of sprout development (in words)” value [2] does the source give for `CC/C=C/C=O` [trans-2-pentenal] here?
**A.** inhibited sprouting in a concentration-dependent manner
